Several values for one entry are separate records, joined by “and”; a condition that tells them apart may be missing. Equal values may be shown once. Read-outs that look alike come from different tables or passages of the source. Peptide text beside a SMILES is read from it.
Legend:
CatL [1] = details: cited from earlier work; for IC50: Table S1, SI reference list
[2] = system: SARS-CoV-2-GFP in Vero E6 cells; assay: microbe, parasite or virus in culture; type: cell-based
SARS-CoV-2 Mpro = SARS-CoV-2 Mpro (Severe acute respiratory syndrome coronavirus 2, UniProt P0DTD1); type: binding; details: 2:1 compound to protein
CatL [3] = molecular target: T1, CatL (Homo sapiens, UniProt P07711, T223A); assay: NanoDSF, thermal stability of CatL; type: binding; details: for 2:1, Tm average (CatL): 2:1 compound to protein; for 20:1, Tm average (CatL): 20:1 compound to protein
T1 construct: made in house; host or cells: Komagataella pastoris strain GS115

CatL [4] = molecular target: T1, CatL; assay: CatL inhibition assay (Ki), substrate Z-RR-AMC; type: biochemical; details: read-out: Residual activity (Vi/V0)
Method: (§1) Experiments were performed in a solution of 50 mM sodium acetate, pH 4.0, 50 mM NaCl, 0.1% PEG 6000, and 5 mM DTT. Distinct assays with epoxide inhibitors at pH 6.0 were performed in 50 mM sodium phosphate buffer, 50 mM NaCl, 5 mM DTT, 0.1% PEG 6000, adjusted to pH 6.0.
(§2) M1000 pro plate reader (Tecan), the fluorescent peptide substrate Z-RR-AMC, and excitation and emission wavelengths of 370 and 460 nm, respectively.
(§3) At first, the inhibitor concentration span was optimized for each inhibitor and the assay buffer. For this initial screening, CatL (5 nM) was mixed with different concentrations of inhibitors (1 nM–50 μM) to determine the range of their inhibition. […] Reaction data were fitted to the […] in GraphPad Prism 9 software: Y = bottom + (top – bottom)/(1 + 10^∧((log IC50 – X) × HillSlope)); X is the log of dose or concentration, Y is the response (fluorescence signal), decreasing as X increases, top and bottom are the plateaus in the same units as Y, log IC50 same log units as X, HillSlope is the slope factor or called the Hill slope.

CatL [5] = molecular target: T1, CatL; assay: CatL inactivation assay comparing epoxides at pH 6 and pH 4; type: biochemical
Method: as §1, §2, §3
Figure S7. Inactivation of CatL.
(1 picture or pasted object on this page, not shown here)

[6] = Cell viability assay (CellTiter-Blue); details: African green monkey
[7] = Severe acute respiratory syndrome coronavirus 2, Vero C1008, 24 h, read-out: EC50 (24 h)
[8] = Severe acute respiratory syndrome coronavirus 2, Vero C1008, 24 h, read-out: EC50 (after 24 h)
[9] = Severe acute respiratory syndrome coronavirus 2, Vero C1008, 48 h, read-out: EC50 (after 48 h)

T1 sequence (P07711 114-333 T223A): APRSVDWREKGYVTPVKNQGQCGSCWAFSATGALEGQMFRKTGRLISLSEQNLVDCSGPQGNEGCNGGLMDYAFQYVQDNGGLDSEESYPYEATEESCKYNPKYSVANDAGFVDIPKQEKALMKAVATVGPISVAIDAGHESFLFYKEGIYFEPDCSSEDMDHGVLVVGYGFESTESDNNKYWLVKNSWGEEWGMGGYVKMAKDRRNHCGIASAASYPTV

CSCCC(C=O)NC(=O)C(CC(C)C)NC(=O)C(CC(C)C)NC(C)=O (stereo not drawn) [CI-II] (Ac-Leu-Leu-Met-aldehyde; configuration not given here)
Ki (CatL [1]; Sasaki et al., read-out: Ki): 0.6 nM

CC(C)C[C@@H](C=O)NC(=O)[C@@H](NS(=O)(=O)c1ccc(F)cc1)C(C)C [CI-VI, 2-[(4-Fluorophenyl)sulfonylamino]-3-methyl-N-(4-methyl-1-oxopentan-2-yl)butanamide]
EC50 [2, 7]: 37.7 nM | EC50 [2, 8]: 37.7 nM | EC50 [2, 9]: 1330 nM | 2:1, Tm average (Mpro) (SARS-CoV-2 Mpro): 54.5 °C | IC50 (CatL [1]): 1.6 nM | ΔTm [K] for CatL, 2:1 ratio (CatL [3]): 15.2 ± 0.4 K | 2:1, Tm average (CatL) (CatL [3]): 78.3 °C | 20:1, Tm average (CatL) (CatL [3]): 81.4 °C | ΔTm (for CatL), 2:1 compound to protein mixing ratio (CatL [3]; pH 5): 15,2 ± 0,4 °C and 15.2 °C | ΔTm (for CatL), 20:1 compound to protein mixing ratio (CatL [3]; pH 5): 18,3 ± 0,1 °C and 18.3 °C

CC[C@H](C)[C@H](NS(=O)(=O)c1cccc2ccccc12)C(=O)N[C@H](C=O)Cc1c[nH]c2ccccc12 [CLI-IV, 1-Naphthalenesulfonyl-Ile-Trp-aldehyde]
EC50 [2, 7]: 7.3 nM | EC50 [2, 8]: 7.26 nM | EC50 ([2]; Severe acute respiratory syndrome coronavirus 2, Vero C1008, 48 h, read-out: EC50 (48 h)): < 500 nM | EC50 [2, 9]: 411 nM | EC50 ([2]; read-out: EC50 (24 h)): < 10 nM | remaining activity at 0.00028 µM (CatL [4]; CLI-IV 0.280 nM): 92.4% | remaining activity at 0.0004 µM (CatL [4]; CLI-IV 0.400 nM): 94.2% | remaining activity at 0.00058 µM (CatL [4]; CLI-IV 0.580 nM): 89.3% | remaining activity at 0.00082 µM (CatL [4]; CLI-IV 0.820 nM): 92.1% | remaining activity at 0.00168 µM (CatL [4]; CLI-IV 1.680 nM): 78.4% | remaining activity at 0.0024 µM (CatL [4]; CLI-IV 2.400 nM): 60.1% | remaining activity at 0.00343 µM (CatL [4]; CLI-IV 3.430 nM): 40.4% | remaining activity at 0.007 µM (CatL [4]; CLI-IV 7.000 nM): 11% | remaining activity at 0.01 µM (CatL [4]; CLI-IV 10.000 nM): 5.5% | 2:1, Tm average (Mpro) (SARS-CoV-2 Mpro): 54.6 °C | IC50 (CatL [1]): 1.9 nM

CN(C)C(=O)C(Cc1ccccc1)NC(=O)[C@H]1O[C@@H]1C(=O)NCCc1ccccn1 (stereo partly drawn) [CLIK148, N-(L-3-trans-(2-pyridin-2-yl-ethylcarbamoyl)-oxirane-2-carbonyl)-L-Phe-dimethylamide]
EC50 [2, 8]: 282 nM | EC50 [2, 9]: 2780 nM | 2:1, Tm average (Mpro) (SARS-CoV-2 Mpro): 54.8 °C | Inactivation Rate (CatL [5]; CLIK148, pH 4, 0.44 µM (440 nM)): 0.0004006 per second and 0.0003231 per second and 0.0004659 per second | Inactivation Rate (CatL [5]; CLIK148, pH 4, 0.99 µM (990 nM)): 0.0009097 per second and 0.0007894 per second and 0.0009283 per second | Inactivation Rate (CatL [5]; CLIK148, pH 4, 1.48 µM (1480 nM)): 0.00137 per second and 0.001226 per second and 0.001313 per second | Inactivation Rate (CatL [5]; CLIK148, pH 4, 2.22 µM (2220 nM)): 0.001929 per second and 0.00189 per second and 0.001923 per second | Inactivation Rate (CatL [5]; CLIK148, pH 4, 3.33 µM (3330 nM)): 0.00288 per second and 0.002823 per second and 0.002796 per second | Inactivation Rate (CatL [5]; CLIK148, pH 4, 5.00 µM (5000 nM)): 0.004395 per second and 0.004358 per second and 0.004463 per second | Inactivation Rate (CatL [5]; CLIK148, pH 6, 0.44 µM (440 nM)): 0.000984 per second and 0.001005 per second and 0.00104 per second | Inactivation Rate (CatL [5]; CLIK148, pH 6, 0.66 µM (660 nM)): 0.001629 per second and 0.001484 per second and 0.001519 per second | Inactivation Rate (CatL [5]; CLIK148, pH 6, 0.99 µM (990 nM)): 0.002031 per second and 0.002049 per second and 0.002115 per second | Inactivation Rate (CatL [5]; CLIK148, pH 6, 1.48 µM (1480 nM)): 0.002988 per second and 0.003179 per second and 0.003258 per second | Inactivation Rate (CatL [5]; CLIK148, pH 6, 2.22 µM (2220 nM)): 0.004844 per second and 0.004638 per second and 0.004732 per second | Inactivation Rate (CatL [5]; CLIK148, pH 6, 3.33 µM (3330 nM)): 0.00752 per second and 0.006254 per second and 0.007241 per second | Inactivation Rate (CatL [5]; CLIK148, pH 6, 5.00 µM (5000 nM)): 0.01516 per second and 0.01256 per second and 0.01191 per second | ΔTm (for CatL), 2:1 compound to protein mixing ratio (CatL [3]; 5 µM CatL, pH 5.0, 2% DMSO, 2:1): 13,8 ± 0,1 °C and 13.8 °C | ΔTm (for CatL), 20:1 compound to protein mixing ratio (CatL [3]; 5 µM CatL, pH 5.0, 2% DMSO, 20:1): 13,9 ± 0,2 °C and 13.9 °C | 2:1, Tm average (CatL) (CatL [3]): 76.9 °C | 20:1, Tm average (CatL) (CatL [3]): 77 °C | ΔTm [K] for CatL, 2:1 ratio (CatL [3]; Table S1, 2:1 ratio): 13.8 ± 0.1 K | viability at 48 h, 1e-05 µM [6]: 99.3% | viability at 48 h, 0.0001 µM [6]: 100% | viability at 48 h, 0.001 µM [6]: 98% | viability at 48 h, 0.01 µM [6]: 101% | viability at 48 h, 0.1 µM [6]: 98.3% | viability at 48 h, 1 µM [6]: 104% | viability at 48 h, 10 µM [6]: 110%
